Like-named read-outs stand apart in the source and are kept apart here.
Legend:
[1] = system: cellular H3K27 methylation; test: Cellular H3K27 methylation assay (Western blot of H3K27me3 in HeLa cells); type: cell-based; details: Homo sapiens, 72 h, read-out: PD IC50
[2] = system: WSU-DLCL2 cells; test: Cell proliferation assay, WSU-DLCL2; type: cell-based; details: Homo sapiens, WSUDLCL2; WSU-DLCL2 cells, cultured to the 9th day; read-out: Anti-proliferation IC50
Experimental: Human B-cell non-Hodgkin's lymphoma cells WSU-DLCL2, Karpas422 and Pfeiffer were cultured in cell culture flasks in a sterile incubator with 95% relative humidity and 5% CO2 at 37° C. The medium was RPMI-1640 (Gibco, product No. 31800022) containing 15% fetal bovine serum (FBS, Gibco, product No. 10099141) and 0.1% penicillin/streptomycin solution (P/S). In order to assay the effects of compounds on cell proliferation, cells in exponential growth phase were seeded into a 12-well plate (Nunc, product No. 150628) with 1 mL of medium per well, wherein WSU-DLCL2 and Karpas422 were seeded at a density of 1×10^5 cells/well, and Pfeiffer was seeded at a density of 2×10^5 cells/well. At the same time, different concentrations of compounds were added to the wells that had seeded with cells (6 concentrations were set for each compound at 3-fold serial dilution), and the final concentration of DMSO was 0.1%. After that, the number of viable cells was determined by Vi-CELL (Beckman Coulter) for WSU-DLCL2 and Pfeiffer every 3 days, and for Karpas422 on days 4, 7, and 11, respectively. The cells counted each time were seeded into a new 12-well plate at the same density, and supplemented with fresh medium to 1 mL. Different concentrations of compounds were added at the same time. WSU-DLCL2 and Pfeiffer were cultured to the 9th day, and Karpas422 was cultured to the 14th day. Cell data were collected uniformly, and analyzed with GraphPad prisim5. Dose curves were fitted, and IC50 values of the assay compounds were obtained.

[3] = HeLa cells, 3 days, H3K27me3 level by Western blot

| SMILES | IC50 [1, 3] [nM] | IC50 [2] [nM] | IC50 ([1]; HeLa) [nM] |
| --- | --- | --- | --- |
| COc1ccc(OCCOc2cnc(NCc3c(F)ccc4c3CCO4)n3cnnc23)cc1 [HJM-127] | 108 | – | – |
| Fc1ccc2c(c1CNc1ncc(OCCn3cccc3)c3nncn13)CCO2 [HJM-128] | 62 | – | – |
| Fc1ccc2c(c1CNc1ncc(OCCn3cncn3)c3nncn13)CCO2 [HJM-129] | 389 | – | – |
| Cc1ccc(COc2cnc(NCc3c(F)ccc4c3CCO4)n3cnnc23)cn1 [HJM-130] | 104 | – | – |
| Fc1ccc2c(c1CNc1ncc(OCc3cncnc3)c3nncn13)CCO2 [HJM-131] | 130 | – | – |
| Fc1ccc2c(c1CNc1ncc(OCc3cnccn3)c3nncn13)CCO2 [HJM-132] | 123 | – | – |
| CC(Oc1cnc(NCc2c(F)ccc3c2CCO3)n2cnnc12)c1cccnc1 (stereo not shown) [HJM-133] | 74.4 | – | – |
| Fc1ccc2c(c1CNc1ncc(OCc3cnco3)c3nncn13)CCO2 [HJM-134] | 159 | – | – |
| CN1CCC(Oc2cnc(NCc3c(F)ccc4c3CCO4)n3cnnc23)C1=O (stereo not shown) [HJM-135] | 286 | – | – |
| CN1CC(Oc2cnc(NCc3c(F)ccc4c3CCO4)n3cnnc23)CC1=O (stereo not shown) [HJM-136] | 394 | – | – |
| COCCOc1cnc(NCc2c(F)ccc3c2CCO3)n2cnnc12 [HJM-137] | 62 | 51.4 | – |
| COCCCOc1cnc(NCc2c(F)ccc3c2CCO3)n2cnnc12 [HJM-138] | 49.8 | 43.2 | – |
| Fc1ccc2c(c1CNc1ncc(OCc3ccccc3)c3nncn13)CCO2 [HJM-139] | – | – | 120 |
| Fc1ccc2c(c1CNc1ncc(OCc3cccnc3)c3nncn13)CCO2 [HJM-140] | 21.4 | – | – |
| Fc1ccc2c(c1CNc1ncc(OCc3ccncc3)c3nncn13)CCO2 [HJM-141] | 64.4 | – | – |
| Fc1ccc2c(c1CNc1ncc(OCc3ccccn3)c3nncn13)CCO2 [HJM-142] | 39.7 | – | – |
| Cc1cccc(COc2cnc(NCc3c(F)ccc4c3CCO4)n3cnnc23)n1 [HJM-143] | 204 | – | – |
| Fc1ccc2c(c1CNc1ncc(OCCn3ccnc3)c3nncn13)CCO2 [HJM-144] | 71.7 | – | – |
| N#CCOc1cnc(NCc2c(F)ccc3c2CCO3)n2cnnc12 [HJM-145] | 32.8 | 47.3 | – |
| O=C(COc1cnc(NCc2c(F)ccc3c2CCO3)n2cnnc12)C1CC1 [HJM-146] | 150 | – | – |
| O=C(NCCOc1cnc(NCc2c(F)ccc3c2CCO3)n2cnnc12)C1CC1 [HJM-147] | 95.3 | – | – |
| CNC(=O)COc1cnc(NCc2c(F)ccc3c2CCO3)n2cnnc12 [HJM-148] | 1090 | – | – |
| CN(C)C(=O)COc1cnc(NCc2c(F)ccc3c2CCO3)n2cnnc12 [HJM-149] | – | – | 546 |
| Fc1ccc2c(c1CNc1ncc(OC(F)F)c3nncn13)CCO2 [HJM-150] | 38.5 | – | – |
| CN(C)C(=O)Oc1cnc(NCc2c(F)ccc3c2CCO3)n2cnnc12 [HJM-151] | – | – | 91.1 |
| COCCN(C)C(=O)c1cnc(NCc2c(F)ccc3c2CCO3)n2cnnc12 [HJM-152] | 73.2 | 106 | – |
| O=C(c1cnc(NCc2c(F)ccc3c2CCO3)n2cnnc12)N1CCC1 [HJM-153] | 93.2 | – | – |
